According to patent US11192920B2, “Peptides for binding to CD44v6 and use thereof” (KYUNGPOOK NATIONAL UNIVERSITY INDUSTRY-ACADEMIC COOPERATION …, priority 2017, dated 2021):

What was measured:
[1] = test system: MDA-MB-231 tumor model; test: MDA-MB-231 lung metastasis model; assay type: in vivo, mice; settings: peptide i.v. 14.2 mg/g 3 times a week for 3 weeks; crizotinib oral 25 mg/kg; vs saline and control peptide
Procedure: (§1) For animal models, 6-week-old to 8-week-old Balb/c female mice were purchased from Orient Bio. Mice were cared for and maintained in conformance with the Guidelines of the Institutional Animal Care and Use Committee (IACUC) of Kyungpook National University. Tumors were prepared by injecting 1×10^6 MDA-MB-231 cells via tail vein to develop lung metastatic model in Balb/c female nude mice and 1×10^6 4T1 cells into the lower left mammary fat pad of Balb/c wild type female mice.
(§2) Tumor-bearing mice were subjected to randomization and grouping when the size of the tumors reached approximately 100 mm^3. Each peptide was intravenously injected via the tail vein of mice ([…] of body weight, 3 times a week for 3 weeks). Crizotinib was given through orally (25 mg/kg of body weight, three times a week for 3 weeks) based on a previous study. Tumor size was measured using a digital caliper, and tumor volume was calculated using the following formula: Volume=(L×W×H)/2 (L: length, longest dimension, W: width, shorter dimension, parallel to the mouse body, and H: height, perpendicular to the length and width). Mice were checked for tumor ulceration. At the end of the treatment, the mice were sacrificed, and the lung and liver were isolated and checked for metastatic tumor masses.
MDA-MB231-luc cells (1×10^6 in 0.1 ml PBS) were injected into the lateral tail vein of female nude mice. The mice were then segregated into groups (n=10 per group) based on initial IVIS image. Starting from day 0, mice were administered CD44v6 peptides by intravenously injected via the tail vein of mice ([…] of body weight, 3 times a week for 3 weeks). After the last IVIS imaging, mice were euthanized and lung tissues were removed from each mouse for metastatic tumor masses immunohistochemical analyses.
(§3) At the end of the treatment, mouse blood was collected and hematological factors were analyzed by DGMIF (Daegu-Gyeongbuk Medical Innovation Foundation) (Daegu, Korea).
CD44v6 Peptides was stable without degradation for at least 24 hours in the presence of serum.

[2] = test system: 4T1 tumor model; test: Anti-tumor therapy in 4T1 tumor model; assay type: in vivo, mice; settings: for tumor and metastatic growth (bioluminescence imaging): peptide i.v. 14.2 mg/kg thrice a week, crizotinib oral 25 mg/kg thrice a week, vs saline
Procedure: as §1, §2, §3
In vivo anti-tumor activity was further evaluated in 4T1 orthotopic mice models. In relevant with the biodistribution and pharmacokinetic results, in vivo therapy was started by administrating 14.2 mg/kg thrice a week via intravenous injection of CD44v6 peptides and 25 mg/kg crizotinib thrice a week orally.

[3] = test system: CD44 variant 6 expressing cells MDA-MB231, HELA, 4T1 and PANC-1; settings: CD44v6 expressing cells
Procedure: (§4) After complete adhesion, the cell culture medium was replaced with fresh medium containing FITC labeled peptides (10 μM) and then the cells were incubated at 37° C. for 1 h and cells were washed with PBS for 3-5 min (thrice) and stained with CD44v6 antibody (Santa cruz), followed by Alexa 594-labeled goat anti-mouse IgG secondary antibody.
(§5) To screen CD44v6-binding peptides, the present inventors first prepared HEK-293 cells transfected with CD44v6-GFP plasmid by transient transfection. […] Twenty phage clones were randomly picked from the third, fourth, and fifth rounds and the peptide-coding DNA inserts of the phage clones were sequenced.

[4] = test system: MCF-7; settings: CD44v6 non-expressing cells
Procedure: as §4, §5

[5] = test system: 4T1 orthotopic mice; settings: anti-CD44v6 antibody staining
Procedure: To analyze ex vivo organ distribution, animals were euthanized at 6 h post-injection with CO2. All major organs (liver, kidney, spleen, heart, and lung) along with tumor tissues were isolated and washed in PBS and ex vivo fluorescence images were taken using the IVIS Lumina III imaging system. Fluorescence intensity within the region of interest (ROI) of each organs was analyzed. Tumor tissues were further fixed with 4% paraformaldehyde overnight and rapidly frozen. Tissue slices (8-μm thick) were prepared using a cryo-microtome and stained with CD44v6 antibody (Santa Cruz), followed by Alexa 594-labeled goat anti-mouse IgG secondary antibody. […]
In vivo fluorescence images were taken before or after injection at various time points (1, 2, 4 and 6 h, respectively) with flamma 675 was injected at the same concentration and method. […]
Ex vivo fluorescence images of excised tumor and organs collected at 6 h post-injection. All major organs (liver, kidney, spleen, heart, and lung) along with tumor tissues were isolated and washed in PBS and ex vivo fluorescence images were taken (n=3) with FPR-675 fluorophore excitation at 675 nm and emission at 698 nm. Fluorescence intensity within the region of interest (ROI) of each organ was analyzed.

[6] = test system: MDA-MB-231 cells; settings: MDA-MB-231, dose-dependent
[7] = test system: MCF-7 cells
[8] = test system: MDA-MB-231 xenograft; settings: anti-CD44v6 antibody staining
Procedure: Tumor tissues were further fixed with 4% paraformaldehyde overnight and rapidly frozen. Tissue slices (8-μm thick) were prepared using a cryo-microtome and stained with CD44v6 antibody (Santa Cruz), followed by Alexa 594-labeled goat anti-mouse IgG secondary antibody.

[9] = test system: c-Met and Erk phosphorylation in MDA-MB-231 cells; settings: MDA-MB-231, HGF 25-50 ng/mL; peptides 5 ug/ml each, combination 10 μg/ml
Procedure: Serum-starved cells (24 hours) were induced with the growth factor HGF (25-50 ng/mL), at 37° C. for 10 min. Where indicated, the cells were treated with a CD44v6 specific peptide or a control peptide (50 μg/ml) at 37° C. for 10 min before induction and cells were washed with ice-cold phosphate-buffered saline (PBS). To detect activated Erk and activated c-Met, cells were lysed in boiling sodium dodecyl sulfate (SDS) sample buffer containing 100 mM dithiothreitol (DTT) and subjected to Western blot analysis using antibodies against phosphorylated Erk and phosphorylated c-Met. The loading control was performed on the same blot, stripped (62.5 mM Tris, pH 6.8, 2% SDS, 0.8% DTT), and probed with the Erk and c-Met antibodies. Blots were stained using the enhanced chemiluminescence system (Thermo Fisher Scientific). Bands in Western blot analysis were quantified with the program ImageJ (National Institutes of Health).
In the present invention, MDA-MB-231 and 4T1 cells were serum-starved (24 hours) and were induced with the growth factor HGF (25-50 ng/mL) at 37° C. for 10 min. The cells were treated with a CD44v6 specific peptide or a control peptide (100 ng/ml) at 37° C. for 10 min before induction. To detect activated Erk and activated c-Met, cells were lysed and subjected to Western blot analysis using antibodies against phosphorylated Erk and phosphorylated c-Met. […]

[10] = test system: CD44v6 silenced MDA-MB-231 cells; settings: for binding of FITC labelled peptide after silencing of CD44v6 gene (flow cytometry): MDA-MB-231, CD44v6 siRNA; for binding of FITC labelled peptide after siRNA treatment (immunofluorescence staining): MDA-MB-231, siRNA 100 nmol
Procedure: Control siRNA (50-[…] (dTdT) 30) and glyceraldehyde-3 phosphate dehydrogenase (GAPDH) siRNA (50-[…] (dTdT)-30) were also purchased from Bioneer, Daejeon, Korea. The transfection was performed using Lipofectamine 2000 (Invitrogen, Karlsruhe, Germany). Two rounds of transfection with an interval of 24 h between were performed. 48 h after the first transfection the cells were serum-starved for 24 h and then subjected to further treatment.
MDA-MB-231 cells were serum-starved for 24 hours and then subjected to further treatment. SiRNAs v6-1 and v6-2 transfected and kept it for different time interval to achieve the CD44v6 expression inhibition.

[11] = test system: CD44v6; settings: biotinylated peptide + avidin bead + cell lysate
Chain of CD44v6 (P16070 386-428 limits assumed): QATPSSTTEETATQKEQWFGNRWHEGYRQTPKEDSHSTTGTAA
Procedure: (§6) Biotinylated CD44v6 peptides was incubated with monomer avidin magnetic beads (Bioclone Inc.) for 30-60 min at room temperature with gentle rotation to be used for peptide pulldown, prior to incubation with cell lysates. Cells were lysed using cell lysis reagent (Thermo scientific) with protease inhibitors. After the first incubation of biotinylated peptide+avidin bead (complex 1) were washed with PBS and complex is incubated with cell lysate for 30-60 min at room temperature with gentle rotation. Bound biotinylated peptide+avidin bead+cell lysate (complex 2) were eluted by 1× blocking buffer/elution buffer for 5-10 min incubation after elution and the elute was subjected to western blot analysis using CD44v6 antibody (Millipore) to pull down the specific protein.
(§7) Biotinylated peptide+avidin bead+cell lysate (complex 2) were eluted for western blot analysis using CD44v6 antibody to pull down the specific protein.

[12] = target: wild-type CD44 (Homo sapiens, UniProt P16070); settings: biotinylated peptide + avidin bead + cell lysate
Chain of wild-type CD44 (P16070 21-361 isoform P16070-12 limits assumed): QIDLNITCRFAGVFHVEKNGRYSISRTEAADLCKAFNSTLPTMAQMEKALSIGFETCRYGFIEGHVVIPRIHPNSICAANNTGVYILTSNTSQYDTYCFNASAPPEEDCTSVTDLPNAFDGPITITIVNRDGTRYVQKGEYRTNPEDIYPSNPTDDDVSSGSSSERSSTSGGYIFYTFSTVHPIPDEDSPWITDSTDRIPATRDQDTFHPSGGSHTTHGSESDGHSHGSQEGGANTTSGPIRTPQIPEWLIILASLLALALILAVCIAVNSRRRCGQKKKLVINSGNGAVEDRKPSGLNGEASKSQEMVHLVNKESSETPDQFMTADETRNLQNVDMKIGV
Procedure: as §6, §7

[13] = test system: c-Met; settings: biotinylated peptide + avidin bead + cell lysate

Compound | metastasis (bioluminescence imaging) [1] | tumor growth (tumor volume) ([2]; 4T1 bearing mice) | tumor and metastatic growth (bioluminescence imaging) [2] | binding to MDA-MB-231, 4T1 and PANC-1 [3] | binding to MCF-7 [4] | immunohistochemical examination of tumor tissues [5] | binding of FITC labelled peptide after pre-treatment with anti-CD44v6 blocking antibody [6] | binding of FITC labelled peptide after pre-treatment with anti-CD44v6 blocking antibody [7] | immunohistochemical examination of tumor tissues [8] | phosphorylation of c-Met and its downstream target Erk [9] | binding of FITC labelled peptide after silencing of CD44v6 gene (flow cytometry) [10] | binding of FITC labelled peptide after siRNA treatment (immunofluorescence staining) [10] | pull down of CD44v6 [11] | pull down of wild-type CD44 [12] | pull down of c-Met [13]
C[C@@H](Oc1cc(-c2cnn(C3CCNCC3)c2)cnc1N)c1c(Cl)ccc(F)c1Cl [crizotinib, reference compound] | inhibited metastatic growth | Slight reduction of tumor volume | slightly inhibited tumor and metastatic growth |  |  |  |  |  |  |  |  |  |  |  | 
CNEWQLKSC [v6Pep-2] | inhibited metastatic growth |  | slightly inhibited tumor and metastatic growth | bind specifically | did not show specific binding | co-localized with CD44v6 | significantly reduced the binding | minimal effect | co-localized with CD44v6 | drastically reduced the phosphorylation | binding got inhibited | negligible binding | pulled down | not pulled down | 
CNLNTIDTC [v6Pep-1] | inhibited metastatic growth |  | slightly inhibited tumor and metastatic growth | bind specifically | did not show specific binding | co-localized with CD44v6 | significantly reduced the binding | minimal effect | co-localized with CD44v6 | drastically reduced the phosphorylation | binding got inhibited | negligible binding | pulled down | not pulled down | pulled down
